Source: patent US20240398767A1, “INHIBITORS OF THE MTDH-SND1 PROTEIN COMPLEX FOR CANCER THERAPY” (The Trustees of Princeton University, priority 2021, published 2024)

Assays:
Format in all cases: in vivo
[1] = test system: orthotopic PyMT tumors; experiment: Established orthotopic PyMT tumors in FVB female mice
Procedure: FIG. 5B, Tumor size was determined. Vehicle, n=10 mice, C26-A6, n=12 mice. Significance determined by Two-Way Repeated Measures ANOVA test.
FIG. 5C, Tumor mass was determined. Vehicle, n=10 mice, C26-A6, n=12 mice. Size bar, 2 cm.
FIG. 5D, H&E staining was performed with lungs, and metastatic nodules were counted. The metastatic nodules of the representative lungs were highlighted with red and blue respectively. Vehicle, n=10 lungs; C26-A6, n=12 lungs. Size bar, 5 mm.
FIG. 13D, Primary tumors from experiment in FIG. 5B were stained with Ki67 and Cleaved-Caspase 3 (Casp-3) antibodies. Size bar, 100 μm.
FIG. 13E, Positive cells were quantified. Data represent mean±SEM. n=6 mice.
Next, established orthotopic PyMT tumors^4 were treated with vehicle or C26-A6 (FIG. 5A). […] The results were confirmed with SCP28 xenograft tumor model in NSG mice (FIGS. 13A-13C).
Methods: Animal models. All procedures involving mice and experimental protocols were approved by the Institutional Animal Care and Use Committees (IACUC) of Princeton University. According to the approved IACUC protocol (1881-20), the primary humane endpoint of tumor burden for an individual mouse is 20 mm in any dimension or a total volume of 4000 mm^3 for mice with multiple tumors. Mice were euthanized before exceeding the limit of tumor burden in this study. In the facility, mice were maintained at 20-22° C. with 14 h:10 h light:dark cycles at 40-70% relative humidity. The Mtdh^fl/fl ES cell lines generated by Mtdh targeting vector (CSD48311) was obtained from the KOMP Repository. The ES cells were injected into the C57BL/6 blastocysts followed by confirmation of germline transmission. Mtdh^fl/fl mice were crossed with FLPe mice to remove the selection marker in the vector. Genotyping (Forward primer: […] (SEQ ID NO:21); Reverse primer: […] (SEQ ID NO:22)) was performed to identify positive mice before they were crossed to other strains that were indicated in each experiment. FLPe (Stock No. 003946), MMTV-PyMT (Stock No. 002374), MMTV-WNT1 (Stock No. 002934), C3 (Stock No. 013591), UBC-Cre^ERT2 (Stock No. 007001), FVB (Stock No. 001800), Balb/C (Stock No. 000651), Athymic nude (Nude) (Stock No. 002019), and NOD Scid Gamma (NSG) (Stock No. 005557) were obtained from Jackson Laboratory. Mice in C57BL/6 background were backcrossed to FVB for at least 10 generations to change the background. […] The tumors were measured by calipers for calculation of tumor volumes (length×width^2/2). For cell lines that are stably labeled with a firefly luciferase expressing vector, lung metastases were monitored by bioluminescent imaging (BLI) and images were processed with Living Image 3D Analysis (version 1.0). […]

[2] = test system: SCP28 cells; experiment: Experimental lung metastasis of SCP28 cells; settings: 5 weeks treatment
Procedure: FIG. 17D, Tail-vein injection lung metastasis was determined by BLI right before (Week 0) or after (5 weeks) vehicle or C26-A6 treatment. Vehicle, n=11 lungs; C26-A6, n=12 lungs.
FIG. 17E, Lung metastatic nodules were quantified. The metastatic nodules of the representative lungs were highlighted with red and blue respectively. Size bar, 5 mm. Vehicle, n=11 lungs; C26-A6, n=12 lungs.
To exclude the possibility that the lung metastasis reduction upon C26-A6 treatment was due to the smaller primary tumor, tail vein injection of PyMT tumor cells was performed to form experimental lung metastasis in FVB mice. Three days later, mice were divided randomly into two groups and treated with vehicle or C26-A6 respectively (FIG. 5L).

[3] = test system: SCP28 xenograft tumor; experiment: SCP28 xenograft tumor model in NSG mice; settings: 8 weeks treatment
Procedure: FIG. 13A, NGS female mice injected with 2 k SCP28 cells orthotopically were subjected to vehicle or C26-A6 treatment after two weeks. Primary tumor volumes were measured.
FIG. 13B, 8 weeks after treatment, tumor mass was assessed. Vehicle, n=10 mice; C26-A6, n=10 mice. Size bar, 2 cm.
FIG. 13C, 8 weeks after treatment, lung metastasis was assessed. Vehicle, n=10 mice; C26-A6, n=10 mice. Size bar, 5 mm.

[4] = 15 mg/kg i.v., continuous treatment

`COc1ccc(Cl)cc1S(=O)(=O)Nc1cccn2nc(C)nc12` [Analog C26-A6] was tested. Which primary tumor growth [1, 4] did it give?
Its primary tumor growth is “significantly inhibited”.

What about the spontaneous lung metastasis [1, 4] of the same compound?
Its spontaneous lung metastasis is “significantly inhibited”.

And the “tumor apoptosis (cleaved-Caspase 3)” value ([1]; IHC of primary tumors)?
The value was “induced tumor apoptosis”.

What about the “tumor proliferation (Ki67)” value ([1]; IHC of primary tumors) of the same compound?
The value was “reduced tumor proliferation”.

And the experimental lung metastasis [2]?
The experimental lung metastasis was “dramatically inhibited”.

What about the “primary tumor growth and lung metastasis” value [3] of the same compound?
Its value is “confirmed”.
